The target in this assay is T1, catalytic domain of human Bub1 (amino acids 704-1085) (Homo sapiens, UniProt O43683).
T1 construct: catalytic domain of human Bub1 (amino acids 704-1085); His6 (N); made in house; host or cells: insect cells (Hi5)
Nature of the assay: Bub1 kinase assay (TR-FRET). It counts as biochemical. The following applies: 10 μM ATP, avg, read-out: Bub1 avg (IC50 [mol/l]). The essentials: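 Readout is the 665/620 nm TR-FRET ratio from anti-phosphoserine antibody, Eu-labelled anti-mouse IgG and streptavidin-XL665, scaled between no-enzyme and uninhibited controls. Reaction: 1 μM biotinylated peptide, 10 μM ATP, 60 min, 22 °C, after 15 min compound preincubation with His6-Bub1 (704-1085, insect-expressed, ~200 ng/ml).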

Structures are written as SMILES.

T1 sequence (O43683 704-1085): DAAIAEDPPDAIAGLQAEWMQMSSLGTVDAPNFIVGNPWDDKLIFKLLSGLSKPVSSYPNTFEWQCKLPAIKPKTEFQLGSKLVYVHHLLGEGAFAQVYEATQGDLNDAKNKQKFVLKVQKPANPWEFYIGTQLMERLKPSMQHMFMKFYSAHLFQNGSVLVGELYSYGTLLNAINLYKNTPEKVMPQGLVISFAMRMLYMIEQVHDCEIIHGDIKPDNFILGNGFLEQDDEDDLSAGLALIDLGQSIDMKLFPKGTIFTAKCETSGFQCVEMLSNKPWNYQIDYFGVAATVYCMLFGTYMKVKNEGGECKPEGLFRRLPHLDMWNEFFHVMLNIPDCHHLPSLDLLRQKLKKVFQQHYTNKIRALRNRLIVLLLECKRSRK

With `Cc1nsc(Nc2cnc(C(F)(F)F)cn2)c1C(=O)Nc1ccc(C(=O)N2CCN(C)CC2)cc1` [Example 262, 3-methyl-N-{4-[(4-methylpiperazin-1 yl)carbonyl]phenyl}-5-{[5-(trifluoromethyl)pyrazin-2-yl]amino}-1,2-thiazole-4-carboxamide], the IC50 is over 20 µM.

Consider `Cc1nsc(Nc2cnc(C(F)(F)F)cn2)c1C(=O)Nc1ccc(OCCCNCC(F)F)nc1` [Example 293, N-(6-{3-[(2,2-difluoroethyl)amino]propoxy}pyridin-3-yl)-3-methyl-5-{[5-(trifluoromethyl)pyrazin-2-yl]amino}-1,2-thiazole-4-carboxamide], for which the IC50 was over 20 µM.

On to `Cc1nsc(Nc2cnc(C(F)(F)F)cn2)c1C(=O)Nc1ccc(F)c(OCCCNCC(F)(F)F)c1` [Example 306, N-(4-fluoro-3-{3-[(2,2,2-trifluoroethyl)amino]propoxy}phenyl)-3-methyl-5-{[5-(trifluoromethyl)pyrazin-2-yl]amino}-1,2-thiazole-4-carboxamide], for which the IC50 was at least 20 µM.

With `Cc1nsc(Nc2cc(C#N)ccn2)c1C(=O)Nc1cccc(C(=O)NC(C)C)c1` [Example 254, 5-[(4-cyanopyridin-2-yl)amino]-N-[3-(isopropylcarbamoyl)phenyl]-3-methyl-1,2-thiazole-4-carboxamide], the IC50 came out at 3.2 µM.

As to `Cc1nsc(Nc2cnc(C(F)(F)F)cn2)c1C(=O)Nc1ccc(F)c(OCC2CCN(C(CF)CF)C2)c1` (stereo not drawn) [Example 320, N-(3-{[1-(1,3-difluoropropan-2-yl)pyrrolidin-3-yl]methoxy}-4-fluorophenyl)-3-methyl-5-{[5-(trifluoromethyl)pyrazin-2-yl]amino}-1,2-thiazole-4-carboxamide], the IC50 is at least 20 µM.

On to `CCNC(=O)c1cccc(NC(=O)c2c(C)nsc2Nc2cnc3ccccc3n2)c1` [Example 251, N-[3-(ethylcarbamoyl)phenyl]-3-methyl-5-(quinoxalin-2-ylamino)-1,2-thiazole-4-carboxamide], for which the IC50 was 0.6 µM.

Take `Cc1nsc(Nc2cncc(C(F)(F)F)n2)c1C(=O)Nc1ccc(F)c(OC2CCN(CC(F)(F)F)CC2)c1` [Example 267, N-(4-fluoro-3-{[1-(2,2,2-trifluoroethyl)piperidin-4-yl]oxy}phenyl)-3-methyl-5-{[6-(trifluoromethyl)pyrazin-2-yl]amino}-1,2-thiazole-4-carboxamide]: the IC50 was over 20 µM.

Turning to `CC(=O)N1CCC(Oc2ccc(NC(=O)c3c(C)nsc3Nc3cnc4ccccc4n3)cn2)CC1` [Example 22, N-{6-[(1-acetylpiperidin-4-yl)oxy]pyridin-3-yl}-3-methyl-5-(quinoxalin-2-ylamino)-1,2-thiazole-4-carboxamide], the IC50 was at least 20 µM.

For `Cc1nsc(Nc2cnc(C(F)(F)F)cn2)c1C(=O)Nc1ccc(OC2CCN(C(CF)CF)C2)nc1` (stereo not drawn) [Example 313, N-(6-{[1-(1,3-difluoropropan-2-yl)pyrrolidin-3-yl]oxy}pyridin-3-yl)-3-methyl-5-{[5-(trifluoromethyl)pyrazin-2-yl]amino}-1,2-thiazole-4-carboxamide], the IC50 is at least 20 µM.

For `Cc1nsc(Nc2cnc3ccccc3n2)c1C(=O)Nc1ccc(N2CCN(C(=O)OC(C)(C)C)CC2)nc1` [Example 248, tert-butyl 4-[5-({[3-methyl-5-(quinoxalin-2-ylamino)-1,2-thiazol-4-yl]carbonyl}amino)pyridin-2-yl]piperazine-1-carboxylate], the IC50 was over 20 µM.

For `Cc1nsc(Nc2cnc3ccccc3n2)c1C(=O)Nc1cccc(NS(=O)(=O)C2CCN(C(=O)OC(C)(C)C)CC2)c1` [Example 258, tert-butyl 4-{[3-({[3-methyl-5-(quinoxalin-2-ylamino)-1,2-thiazol-4-yl]carbonyl}amino)phenyl]sulfamoyl} piperidine-1-carboxylate], the IC50 was over 20 µM.

`Cc1nsc(Nc2cncc(C(F)(F)F)n2)c1C(=O)Nc1ccc(C(=O)NC2CN(CC(F)(F)F)C2)cc1` [Example 280, 3-methyl-N-(4-{[1-(2,2,2-trifluoroethyl)azetidin-3-yl]carbamoyl}phenyl)-5-{[6-(trifluoromethyl)pyrazin-2-yl]amino}-1,2-thiazole-4-carboxamide]: the IC50 was over 20 µM.

For the molecule `Cc1nsc(Nc2cncc(C(F)(F)F)n2)c1C(=O)Nc1ccc(OCCO)nc1` [Example 276, N-[6-(2-hydroxyethoxy)pyridin-3-yl]-3-methyl-5-{[6-(trifluoromethyl)pyrazin-2-yl]amino}-1,2-thiazole-4-carboxamide], the IC50 was over 20 µM.

As for `Cc1nsc(Nc2cnc3ccccc3n2)c1C(=O)Nc1cccc(NS(=O)(=O)C2CN(CC(F)F)C2)c1` [Example 286, N-[3-({[1-(2,2-difluoroethyl)azetidin-3-yl]sulfonyl}amino)phenyl]-3-methyl-5-(quinoxalin-2-ylamino)-1,2-thiazole-4-carboxamide], the IC50 is over 20 µM.

`Cc1nsc(Nc2cnc3ccccc3n2)c1C(=O)Nc1cccc(NS(=O)(=O)C2CCN(CC(F)F)CC2)c1` [Example 282, N-[3-({[1-(2,2-difluoroethyl)piperidin-4-yl]sulfonyl}amino)phenyl]-3-methyl-5-(quinoxalin-2-ylamino)-1,2-thiazole-4-carboxamide]: the IC50 is over 20 µM.

Consider `Cc1nsc(Nc2cnc(C(F)(F)F)cn2)c1C(=O)Nc1ccc(C(=O)N2CCN(CC(F)(F)F)CC2)cc1` [Example 260, 3-methyl-N-(4-{[4-(2,2,2-trifluoroethyl)piperazin-1-yl]carbonyl}phenyl)-5-{[5-(trifluoromethyl)pyrazin-2-yl]amino}-1,2-thiazole-4-carboxamide], for which the IC50 was over 20 µM.

Regarding `Cc1nsc(Nc2cnc(C(F)(F)F)cn2)c1C(=O)Nc1ccc(F)c(OC2CCN(CC(F)(F)F)CC2)c1` [Example 264, N-(4-fluoro-3-{[1-(2,2,2-trifluoroethyl)piperidin-4-yl]oxy}phenyl)-3-methyl-5-{[5-(trifluoromethyl)pyrazin-2-yl]amino}-1,2-thiazole-4-carboxamide], the IC50 was over 20 µM.

For `Cc1nsc(Nc2cnc(C(F)(F)F)cn2)c1C(=O)Nc1ccc(F)c(OCC2CCN(CCF)CC2)c1` [Example 309, N-(4-fluoro-3-{[1-(2-fluoroethyl)piperidin-4-yl]methoxy}phenyl)-3-methyl-5-{[5-(trifluoromethyl)pyrazin-2-yl]amino}-1,2-thiazole-4-carboxamide], the IC50 is at least 20 µM.

For `Cc1nsc(Nc2cnc(C(F)(F)F)cn2)c1C(=O)Nc1ccc(OC2CCN(CCC(F)(F)F)C2)nc1` (stereo not drawn) [Example 298, 3-methyl-5-{[5-(trifluoromethyl)pyrazin-2-yl]amino}-N-(6-{[1-(3,3,3-trifluoropropyl)pyrrolidin-3-yl]oxy}pyridin-3-yl)-1,2-thiazole-4-carboxamide], the IC50 was over 20 µM.

With `Cc1nsc(Nc2cnc(C(F)(F)F)cn2)c1C(=O)Nc1ccc(F)c(OC2CCN(CC(F)F)CC2)c1` [Example 265, N-(3-{[1-(2,2-difluoroethyl)piperidin-4-yl]oxy}-4-fluorophenyl)-3-methyl-5-{[5-(trifluoromethyl)pyrazin-2-yl]amino}-1,2-thiazole-4-carboxamide], the IC50 was over 20 µM.

For the molecule `CCN1CCN(C(=O)c2ccc(NC(=O)c3c(C)nsc3Nc3cncc(C(F)(F)F)n3)cc2)CC1` [Example 275, N-{4-[(4-ethylpiperazin-1-yl)carbonyl]phenyl}-3-methyl-5-{[6-(trifluoromethyl)pyrazin-2-yl]amino}-1,2-thiazole-4-carboxamide], the IC50 is over 20 µM.

(Values after patent US20170334899A1, “AMINO-SUBSTITUTED ISOTHIAZOLES” (Bayer Pharma Aktiengesellschaft, priority 2014, published 2017).)
